According to patent US11007250B2, “Methods and kits for treating pain” (Duke University, priority 2017, dated 2021):

Experiments:
[1] = test system: tibia bone of mice with LLC bone cancer; assay: X-ray bone destruction score in LLC bone cancer model; assay type: in vivo, mouse; details: Nivolumab 10 mg/kg IV; scores 8, 11 and 15 days after tumor inoculation
Description: FIG. 27. Intravenous injections of Nivolumab protect against bone destruction after tumor inoculation. […] (B) X-ray images showing tibia bones 11 days after tumor inoculation. Arrows show bone destruction in saline-treated animals. (C) Bone destruction scores 8, 11, and 15 days after tumor inoculation. The scores were assessed as follows: Score 0, normal bone with no signs of destruction; Scorel, small radiolucent lesions indicative of bone destruction (one to three lesions); Score 2, increased number of lesions (three to six lesions) and loss of medullary bone; Score 3, loss of medullary bone and erosion of cortical bone; Score 4, full-thickness unicortical bone loss; Score 5, full-thickness bicortical bone loss and displaced skeletal fracture. n=9-11 in each group, male, 8-10 weeks; Two-way ANOVA with Bonferroni's hoc-test; *P<0.05, compared with baseline; #P<0.05, compared with Saline group; Scores n were shown by the arrows in B.
Since cancers often become painful after metastasis to bone tissue, we examined the role of PD-1 in a bone cancer pain model following inoculation of Lewis lung cancer (LLC) cells into tibia bone cavity. […]

[2] = test system: melanoma-bearing mice; assay: Mouse melanoma model: spontaneous pain, von Frey test, CPP; assay type: in vivo; details: MCI-4w
[3] = test system: spinal wide dynamic range (WDR) neurons; assay: Extracellular recording of spinal WDR neurons in bone cancer rats in vivo; set-up: species or system rat; details: PD-L1 20 μg i.t., day 14; Nivolumab 10 μg i.t., day 8
Description: Rat bone cancer pain model. Tumor cells were extracted from the ascetic fluid of rats that received Walker 256 rat mammary gland carcinoma cells, and suspension of 1×10^8/ml tumor cells in PBS was prepared. The inoculation was performed as previously described (Yang, Y, et al. J. Neurosci., 2015, 35:7950-7963). Briefly, rats were anesthetized with sodium pentobarbital (50 mg/kg, intraperitoneal). The right leg was shaved, and the skin was disinfected with iodine tincture and 75% ethanol. A 22-gauge needle was inserted at the site of the intercondylar eminence of the right tibia and was then replaced with a 10 μl microinjection syringe containing a 4 μl suspension of tumor cells (4×10^5). The contents of the syringe were slowly injected into the tibia cavity. To prevent leakage of cells outside the bone, the injection site was sealed with bone wax. […]
Extracellular recording in rat spinal cord in vivo. […] The electrocardiogram was monitored, and the heart rate was maintained at 250-300/min. […] WDR neurons responding to innocuous stimulation and to a greater degree, noxious stimulation of the RF were analyzed in the present study. The recorded signals were amplified with a microelectrode amplifier (1800 A-M System, USA) and fed to computer via a CED 1401 interface for off-line analysis using the Spike 2 software (Cambridge Electronic Design, Cambridge, UK). […]

Question: “Nivolumab: FDA-approved fully humanized IgG4 monoclonal anti-PD-1 antibody, Bristol-Myers Squibb” was tested. Which “tibia bone destruction during cancer progression (X-ray)” value [1] did it give?
Answer: protected

Question: What about the “mechanical allodynia in melanoma-bearing mice” value ([2]; sPD-1 5 μg i.pl., siRNA 2 μg peri-sciatic, Nivolumab 3-10 mg/kg i.v., RMP1-14 10 mg/kg i.v.) of the same substance?
Answer: rapid, persistent, and dose-dependent mechanical allodynia

Question: What about the “spontaneous pain (licking/flinching) in melanoma-bearing mice” value ([2]; sPD-1 5 μg i.pl., siRNA 2 μg peri-sciatic, Nivolumab 3-10 mg/kg i.v., RMP1-14 10 mg/kg i.v., SSG 5 μg i.pl.) of the same substance?
Answer: marked spontaneous pain

Question: And the “mechanical allodynia in melanoma-bearing mice after local injection” value ([2]; intrathecal or intraplantar route)?
Answer: evoked mechanical allodynia

Question: What about the “activity of WDR neurons in bone cancer rats” value [3] of the same substance?
Answer: enhanced activities of WDR neurons
